According to ChEMBL document CHEMBL5257159, “Insights into targeting SARS-CoV-2: design, synthesis, in silico studies and antiviral evaluation of new dimethylxanthine derivatives” (RSC Med Chem, 2023):
Calls of active or inactive are those of the source. The calls are words filed in the database; no cut-off is given here.

Columns and labels:
KM12 = experiment: Cytotoxicity against human KM12 cells assessed as inhibition of cell growth incubated for 48 hrs by SRB assay; format: functional, cell-based
COLO 205 = experiment: Cytotoxicity against human COLO 205 cells assessed as inhibition of cell growth incubated for 48 hrs by SRB assay; format: functional, cell-based
LOX IMVI = experiment: Cytotoxicity against human LOX IMVI cells assessed as inhibition of cell growth incubated for 48 hrs by SRB assay; format: functional, cell-based
SK-MEL-2 = experiment: Cytotoxicity against human SK-MEL-2 cells assessed as inhibition of cell growth incubated for 48 hrs by SRB assay; format: functional, cell-based
SARS-CoV-2 = experiment: Antiviral activity against SARS-CoV-2 NRC-03-nhCoV infected in african green monkey Vero E6 cells assessed as inhibition of virus-induced cytopathic effect measured after 72 hrs by crystal violet staining based assay; format: functional, organism-based; conditions: Severe acute respiratory syndrome coronavirus 2, NRC-03-nhCoV, Vero C1008, 72 h
BT-549 = experiment: Cytotoxicity against human BT-549 cells assessed as inhibition of cell growth incubated for 48 hrs by SRB assay; format: functional, cell-based
MDA-MB-468 = experiment: Cytotoxicity against human MDA-MB-468 cells assessed as inhibition of cell growth incubated for 48 hrs by SRB assay; format: functional, cell-based
SW-620 = experiment: Cytotoxicity against human SW620 cells assessed as inhibition of cell growth incubated for 48 hrs by SRB assay; format: functional, cell-based
K562 = experiment: Cytotoxicity against human K562 cells assessed as inhibition of cell growth incubated for 48 hrs by SRB assay; format: functional, cell-based
HT-29 = experiment: Cytotoxicity against human HT-29 cells assessed as inhibition of cell growth incubated for 48 hrs by SRB assay; format: functional, cell-based
OVCAR-4 = experiment: Cytotoxicity against human OVCAR-4 cells assessed as inhibition of cell growth incubated for 48 hrs by SRB assay; format: functional, cell-based
OVCAR-5 = experiment: Cytotoxicity against human OVCAR-5 cells assessed as inhibition of cell growth incubated for 48 hrs by SRB assay; format: functional, cell-based
EKVX = experiment: Cytotoxicity against human EKVX cells assessed as inhibition of cell growth incubated for 48 hrs by SRB assay; format: functional, cell-based
NCI-H522 = experiment: Cytotoxicity against human NCI-H522 cells assessed as inhibition of cell growth incubated for 48 hrs by SRB assay; format: functional, cell-based
HCT-116 = experiment: Cytotoxicity against human HCT-116 cells assessed as inhibition of cell growth incubated for 48 hrs by SRB assay; format: functional, cell-based
TK-10 = experiment: Cytotoxicity against human TK-10 cells assessed as inhibition of cell growth incubated for 48 hrs by SRB assay; format: functional, cell-based
NCI/ADR-RES = experiment: Cytotoxicity against human NCI/ADR-RES cells assessed as inhibition of cell growth incubated for 48 hrs by SRB assay; format: functional, cell-based
ACHN = experiment: Cytotoxicity against human ACHN cells assessed as inhibition of cell growth incubated for 48 hrs by SRB assay; format: functional, cell-based
UO-31 = experiment: Cytotoxicity against human UO-31 cells assessed as inhibition of cell growth incubated for 48 hrs by SRB assay; format: functional, cell-based
SK-OV-3 = experiment: Cytotoxicity against human SK-OV-3 cells assessed as inhibition of cell growth incubated for 48 hrs by SRB assay; format: functional, cell-based
SN12C = experiment: Cytotoxicity against human SN12C cells assessed as inhibition of cell growth incubated for 48 hrs by SRB assay; format: functional, cell-based
NCI-H226 = experiment: Cytotoxicity against human NCI-H226 cells assessed as inhibition of cell growth incubated for 48 hrs by SRB assay; format: functional, cell-based
DU-145 = experiment: Cytotoxicity against human DU-145 cells assessed as inhibition of cell growth incubated for 48 hrs by SRB assay; format: functional, cell-based
NCI-H460 = experiment: Cytotoxicity against human NCI-H460 cells assessed as inhibition of cell growth incubated for 48 hrs by SRB assay; format: functional, cell-based
M14 = experiment: Cytotoxicity against human M14 cells assessed as inhibition of cell growth incubated for 48 hrs by SRB assay; format: functional, cell-based
UACC-257 = experiment: Cytotoxicity against human UACC-257 cells assessed as inhibition of cell growth incubated for 48 hrs by SRB assay; format: functional, cell-based
SK-MEL-28 = experiment: Cytotoxicity against human SK-MEL-28 cells assessed as inhibition of cell growth incubated for 48 hrs by SRB assay; format: functional, cell-based
A498 = experiment: Cytotoxicity against human A498 cells assessed as inhibition of cell growth incubated for 48 hrs by SRB assay; format: functional, cell-based
U-251 = experiment: Cytotoxicity against human U-251 cells assessed as inhibition of cell growth incubated for 48 hrs by SRB assay; format: functional, cell-based
CAKI-1 = experiment: Cytotoxicity against human CAKI-1 cells assessed as inhibition of cell growth incubated for 48 hrs by SRB assay; format: functional, cell-based
A549 = experiment: Cytotoxicity against human A549 cells assessed as inhibition of cell growth incubated for 48 hrs by SRB assay; format: functional, cell-based
SR = experiment: Cytotoxicity against human SR cells assessed as inhibition of cell growth incubated for 48 hrs by SRB assay; format: functional, cell-based
MOLT-4 = experiment: Cytotoxicity against human MOLT-4 cells assessed as inhibition of cell growth incubated for 48 hrs by SRB assay; format: functional, cell-based
SK-MEL-5 = experiment: Cytotoxicity against human SK-MEL-5 cells assessed as inhibition of cell growth incubated for 48 hrs by SRB assay; format: functional, cell-based
Malme-3M = experiment: Cytotoxicity against human Malme-3M cells assessed as inhibition of cell growth incubated for 48 hrs by SRB assay; format: functional, cell-based
SF-268 = experiment: Cytotoxicity against human SF-268 cells assessed as inhibition of cell growth incubated for 48 hrs by SRB assay; format: functional, cell-based
HCT-15 = experiment: Cytotoxicity against human HCT-15 cells assessed as inhibition of cell growth incubated for 48 hrs by SRB assay; format: functional, cell-based
SF-295 = experiment: Cytotoxicity against human SF-295 cells assessed as inhibition of cell growth incubated for 48 hrs by SRB assay; format: functional, cell-based
MDA-MB-435 = experiment: Cytotoxicity against human MDA-MB-435 cells assessed as inhibition of cell growth incubated for 48 hrs by SRB assay; format: functional, cell-based
CCRF-CEM = experiment: Cytotoxicity against human CCRF-CEM cells assessed as inhibition of cell growth incubated for 48 hrs by SRB assay; format: functional, cell-based
NCI-H322M = experiment: Cytotoxicity against human NCI-H322M cells assessed as inhibition of cell growth incubated for 48 hrs by SRB assay; format: functional, cell-based
SNB-19 = experiment: Cytotoxicity against human SNB-19 cells assessed as inhibition of cell growth incubated for 48 hrs by SRB assay; format: functional, cell-based
OVCAR-3 = experiment: Cytotoxicity against human OVCAR-3 cells assessed as inhibition of cell growth incubated for 48 hrs by SRB assay; format: functional, cell-based
MDA-MB-231 = experiment: Cytotoxicity against human MDA-MB-231 cells assessed as inhibition of cell growth incubated for 48 hrs by SRB assay; format: functional, cell-based
HOP-92 = experiment: Cytotoxicity against human HOP-92 cells assessed as inhibition of cell growth incubated for 48 hrs by SRB assay; format: functional, cell-based
RPMI-8226 = experiment: Cytotoxicity against human […] cells assessed as inhibition of cell growth incubated for 48 hrs by SRB assay; format: functional, cell-based
RXF 393 = experiment: Cytotoxicity against human RXF 393 cells assessed as inhibition of cell growth incubated for 48 hrs by SRB assay; format: functional, cell-based
PC-3 = experiment: Cytotoxicity against human PC-3 cells assessed as inhibition of cell growth incubated for 48 hrs by SRB assay; format: functional, cell-based
[1] = Selectivity index, ratio of CC50 for african green monkey Vero E6 cells to IC50 for antiviral activity against SARS-CoV-2 NRC-03-nhCoV infected in african green monkey Vero E6 cells; format: toxicity, Vero C1008; conditions: read-out: Ratio CC50/IC50
Hs578Bst = experiment: Cytotoxicity against human Hs578Bst cells assessed as inhibition of cell growth incubated for 48 hrs by SRB assay; format: functional, cell-based
786-0 = experiment: Cytotoxicity against human 786-0 cells assessed as inhibition of cell growth incubated for 48 hrs by SRB assay; format: functional, cell-based
SNB-75 = experiment: Cytotoxicity against human SNB-75 cells assessed as inhibition of cell growth incubated for 48 hrs by SRB assay; format: functional, cell-based
T47D = experiment: Cytotoxicity against human T47D cells assessed as inhibition of cell growth incubated for 48 hrs by SRB assay; format: functional, cell-based
HL-60(TB) = experiment: Cytotoxicity against human HL-60(TB) cells assessed as inhibition of cell growth incubated for 48 hrs by SRB assay; format: functional, cell-based
[2] = Cytotoxicity against African green monkey Vero E6 cells measured after 72 hrs by MTT assay; format: toxicity, cell-based, Vero C1008; conditions: chlorocebus sabaeus
IGROV-1 = experiment: Cytotoxicity against human IGROV-1 cells assessed as inhibition of cell growth incubated for 48 hrs by SRB assay; format: functional, cell-based
HOP-62 = experiment: Growth inhibition of human HOP-62 cells incubated for 48 hrs by SRB assay relative to control; format: functional
NCI-H23 = experiment: Cytotoxicity against human NCI-H23 cells assessed as inhibition of cell growth incubated for 48 hrs by SRB assay; format: functional, cell-based
SF-539 = experiment: Cytotoxicity against human SF-539 cells assessed as inhibition of cell growth incubated for 48 hrs by SRB assay; format: functional, cell-based
HCC 2998 = experiment: Cytotoxicity against human HCC 2998 cells assessed as inhibition of cell growth incubated for 48 hrs by SRB assay; format: functional, cell-based
MCF7 = experiment: Cytotoxicity against human MCF7 cells assessed as inhibition of cell growth incubated for 48 hrs by SRB assay; format: functional, cell-based
OVCAR-8 = experiment: Cytotoxicity against human OVCAR-8 cells assessed as inhibition of cell growth incubated for 48 hrs by SRB assay; format: functional, cell-based

Cn1c(=O)c2c(ncn2CCC(=O)Nc2ccc(S(=O)(=O)Nc3ncccn3)cc2)n(C)c1=O
Activity (KM12): inactive | Activity (COLO 205): inactive | Activity (LOX IMVI): inactive | Activity (SK-MEL-2): inactive | IC50 (SARS-CoV-2): 38.4 µM | Activity (BT-549): inactive | Activity (MDA-MB-468): inactive | Activity (SW-620): inactive | Activity (K562): inactive | Activity (HT-29): inactive | Activity (OVCAR-4): inactive | Activity (OVCAR-5): inactive | Activity (EKVX): inactive | Activity (NCI-H522): inactive | Activity (HCT-116): inactive | Activity (TK-10): inactive | Activity (NCI/ADR-RES): inactive | Activity (ACHN): inactive | Activity (UO-31): inactive | Activity (SK-OV-3): inactive | Activity (SN12C): inactive | Activity (NCI-H226): inactive | Activity (DU-145): inactive | Activity (NCI-H460): inactive | Activity (M14): inactive | Activity (UACC-257): inactive | Activity (SK-MEL-28): inactive | Activity (A498): inactive | Activity (U-251): inactive | Activity (CAKI-1): inactive | Activity (A549): inactive | Activity (SR): inactive | Activity (MOLT-4): inactive | Activity (SK-MEL-5): inactive | Activity (Malme-3M): inactive | Activity (SF-268): inactive | Activity (HCT-15): inactive | Activity (SF-295): inactive | Activity (MDA-MB-435): inactive | Activity (CCRF-CEM): inactive | Activity (NCI-H322M): inactive | Activity (SNB-19): inactive | Activity (OVCAR-3): inactive | Activity (MDA-MB-231): inactive | Activity (HOP-92): inactive | Activity (RPMI-8226): inactive | Activity (RXF 393): inactive | Activity (PC-3): inactive | selectivity ratio [1]: 103 | Activity (Hs578Bst): inactive | Activity (786-0): inactive | Activity (SNB-75): inactive | Activity (T47D): inactive | Activity (HL-60(TB)): inactive | CC50 at 72 h [2]: 3.94 mM | Activity (IGROV-1): inactive | growth inhibition (GI) (HOP-62): 16.12% | Activity (NCI-H23): inactive | Activity (SF-539): inactive | Activity (HCC 2998): inactive | Activity (MCF7): inactive | Activity (OVCAR-8): inactive
